Assay results published in patent publication US10954196B2, “Method for producing 5-hydroxy-1H-imidazole-4 carboxamide 3/4 hydrate” (FUJIFILM Corporation, priority 2017, dated 2021).

Experiments:
[1] = Test Example 3: coloring stability during storage (unwashed product); format: physicochemical; conditions: light shielding, 60° C., 75% relative humidity, hydrate; for Color difference (ΔE): before vs after storage for 5 days, spectrophotometric color difference meter, reflection method; for Tone: visually observed after storage for 5 days, air atmosphere
[2] = Test Example 1: test of coloring stability during storage (washed product); format: physicochemical; conditions: visually observed after storage for 5 days, air atmosphere, light shielding, 60° C., 75% relative humidity, hydrate
Procedure: About 1 g of the test substance was placed in a storage bag formed by stacking two 0.04 mm-thick polyethylene bags, sealed in each polyethylene bag, and stored for 5 days in an air atmosphere under the conditions of light shielding, 60° C., and 75% relative humidity. The tone of the test substance after the test was visually observed. In addition, a change in the color of the crystal before and after the test was measured with a spectrophotometric color difference meter to determine the color difference. Colorimeter: spectrophotometric color difference meter SE2000 manufactured by Nippon Denshoku Industries Co., Ltd. Measurement method: reflection method

[3] = as disclosed in Test Example 1 and Test Example 2 of WO2009/035168A; cited from earlier work

Compound | Color difference (ΔE) [1] | Tone [1] | Tone [2] | Coloring stability (color change) [3]
NC(=O)c1nc[nH]c1O.O [Comparative Example 1, 5-hydroxy-1H-imidazole-4-carboxamide•¾ hydrate, reference compound] | 62.4 | Black blue | – | –
NC(=O)c1nc[nH]c1O.O [Comparative Example 2, 5-hydroxy-1H-imidazole-4-carboxamide•¾ hydrate, reference compound] | 51.4 | Black blue | – | –
NC(=O)c1nc[nH]c1O.O [Example 2, 5-hydroxy-1H-imidazole-4-carboxamide•¾ hydrate] | 3.1 | White | White | –
NC(=O)c1nc[nH]c1O.O [Example 3, 5-hydroxy-1H-imidazole-4-carboxamide•¾ hydrate] | 1.1 | White | White | –
NC(=O)c1nc[nH]c1O.O [Example 4, 5-hydroxy-1H-imidazole-4-carboxamide•¾ hydrate] | 2.3 | White | White | –
NC(=O)c1nc[nH]c1O.O [Example 5, 5-hydroxy-1H-imidazole-4-carboxamide•¾ hydrate] | 4.1 | White | White | –
NC(=O)c1nc[nH]c1O.O [Example 7, 5-hydroxy-1H-imidazole-4-carboxamide•¾ hydrate] | 1.0 | White | White | –
NC(=O)c1nc[nH]c1O.O [Example 8, 5-hydroxy-1H-imidazole-4-carboxamide•¾ hydrate] | 1.4 | White | White | –
NC(=O)c1nc[nH]c1O.O [Example 9, 5-hydroxy-1H-imidazole-4-carboxamide•¾ hydrate] | 0.9 | White | White | –
NC(=O)c1nc[nH]c1O.O [Example 10, 5-hydroxy-1H-imidazole-4-carboxamide•¾ hydrate] | 2.2 | White | White | –
NC(=O)c1nc[nH]c1O.O [Example 11, 5-hydroxy-1H-imidazole-4-carboxamide•¾ hydrate] | 1.6 | White | White | –
NC(=O)c1nc[nH]c1O.O [Example 12, 5-hydroxy-1H-imidazole-4-carboxamide•¾ hydrate] | – | White | White | –
NC(=O)c1nc[nH]c1O [compound A, 5-Hydroxy-1H-imidazole-4-carboxamide] | – | – | – | changed color to indigo blue or blue
Cl.NC(=O)c1nc[nH]c1O [hydrochloride of the compound A] | – | – | – | stable
